# Reference: article PMC9290910, “Neuropilin‐1 is required for endothelial cell adhesion to soluble vascular endothelial growth factor receptor 1” (The Febs Journal, 2021)
# Where no end group is shown, it is not given here.
# Tests used:
# [1] = system: EC (HUVEC) adhesion to peptide 12; assay: Cell adhesion assay, EC adhesion to peptide 12; type: cell-based, human; settings: plates coated with 500 µg·mL^−1 peptide 12
# Method: Human umbilical vein endothelial cells (HUVEC) were isolated from freshly delivered umbilical cords, as previously described, cultured in Endothelial Cell Growth Medium‐2 Kit from Clonetics (EGM‐2, CC4176, Lonza, Basel, Switzerland), and used up to passage 6. For functional assays, HUVEC were resuspended in Endothelial Basal Medium‐2 (EBM‐2, CC3156, Lonza). A pool of cells derived from four different individuals was used.
# Solid support for adhesion assay was prepared by incubating immunological 96‐multiwell plates with 20 µg·mL^−1 VEGFR‐1/Fc chimera, or fibronectin solubilized in PBS. After 2 h, the coating solution was removed, and the well surface was blocked with 3% BSA in PBS for 18 h, before plating ECs in serum‐free medium at 3 × 10^4 cells per well. After incubation at 37 °C for 1 h, the wells were washed with PBS and attached cells were fixed with 3% formaldehyde and stained with 0.5% crystal violet. Attachment efficiency was determined by quantitative dye extraction and spectrophotometric measurement of the absorbance at 540 nm, using a Microplate reader 3550‐UV (Bio‐Rad). In competition experiments, peptides Flt2‐11, scrambled Flt2‐11, Flt2‐8 or Flt2‐5, at 20 µg·mL^−1, were added during the adhesion assay. Adhesion to peptide 12 was carried out by using maleic anhydride activated microplates (Reacti‐Bind, Pierce, Rockford, IL, USA) coated with 500 µg·mL^−1 of the peptide.
# [2] = system: α5β1 integrin signalling in ECs; assay: Signalling activated by EC adhesion; type: cell-based; settings: myristoylated alanine‐rich C‐kinase substrate up-regulation, Rac1 activation; data not shown
# α5β1 integrin = system: α5β1 integrin; set-up: method as in 2 sources, one per row (each row's own in cited_ref): ref 34, 36 = [34]; PMID 18184864; doi:10.1182/blood-2007-03-077537; 34 Soro S , Orecchia A , Morbidelli L , Lacal PM , Morea V , Ballmer‐Hofer K , Ruffini F , Ziche M , D'Atri S , Zambruno G et al . ( 2008 ) A proangiogenic peptide derived from vascular endothelial gr || [36]; PMID 18682321; doi:10.1016/j.ejca.2008.06.032; 36 Lacal PM , Morea V , Ruffini F , Orecchia A , Dorio AS , Failla CM , Soro S , Tentori L , Zambruno G , Graziani G et al . ( 2008 ) Inhibition of endothelial cell migration and angiogenesis by a vas ||| ref 34 = [34]; PMID 18184864; doi:10.1182/blood-2007-03-077537; 34 Soro S , Orecchia A , Morbidelli L , Lacal PM , Morea V , Ballmer‐Hofer K , Ruffini F , Ziche M , D'Atri S , Zambruno G et al . ( 2008 ) A proangiogenic peptide derived from vascular endothelial gr; settings: cited from earlier work
# [3] = system: EC (HUVEC) adhesion to peptide 12; settings: cited from earlier work
# Text: (§1) To dissect whether interaction of NRP‐1 with the transmembrane or the soluble isoform of VEGFR‐1 was required for EC adhesion to sVEGFR‐1, we performed EC adhesion assays by substituting sVEGFR‐1 with a different adhesion substrate, named peptide 12.
# angiogenesis = settings: cited from earlier work
# Text: as §1
substance,measurement,setting,value
"peptide 12: seven amino acid‐long peptide that maps on the second VEGFR‐1 Ig‐like domain (residues 219–225) (NYLTHRQ; also: biotin, position not given here)",EC adhesion to peptide 12 in the absence of NRP‐1,[1],ECs adhere to peptide 12 in the absence of NRP‐1
same,signalling pathway activation by EC adhesion to peptide 12,[2],also activated
same,binding to α5β1 integrin,α5β1 integrin,able to directly bind α5β1 integrin
same,support of EC adhesion by peptide 12,[3],support EC adhesion
same,pro‐angiogenic stimulus,angiogenesis,pro‐angiogenic stimulus
